Paper PMC10387993, “New pyrimidine-N-β-D-glucosides: synthesis, biological evaluation, and molecular docking investigations” (Turkish Journal of Chemistry, 2023)
Values after ≈ are worked out from the molar mass of the structure shown. Read-outs that look alike come from different tables or passages of the source.

Columns and labels:
Format in all cases: cell-based
[1] = LDH cytotoxic activity assay, HT29; conditions: human, HT29 cells
How it was run: (§1)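 Harvest ~80%-confluent cells with trypsin-EDTA, seed ~5 × 10^3 per well in DMEM or RPMI 1640 containing 10% FBS, then add compound at 25–100 μg/mL (four levels) for 24 h at 37 °C. Finish by reading LDH activity at 492–630 nm.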

[2] = in vitro; conditions: human, LC50
How it was run: (§2)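 In this MTT proliferation screen, formazan formed over 4 h was read at 560 nm against a 690 nm reference. Each line was tested at least three times, and the IC50 was taken as the concentration inhibiting half of the cells.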

[3] = test system: normal FL cells; test: cells; conditions: FL normal cells, MTT
How it was run: as §2

[4] = test system: HeLa; test: cells; conditions: Homo sapiens
How it was run: as §2

[5] = test system: HT29; test: cells; conditions: Homo sapiens
How it was run: as §2

[6] = test system: Hep3B; test: cells; conditions: Homo sapiens
How it was run: as §2

[7] = test system: C6 (Rat brain glioma); test: cells; conditions: Rattus norvegicus
How it was run: as §2

[8] = test system: A549; test: cells; conditions: Homo sapiens
How it was run: as §2

[9] = test system: MCF7; test: cells; conditions: Homo sapiens
How it was run: as §2

[10] = test system: S. aureus MRSA ATCC 46300; test: Microdilution MIC assay; conditions: Staphylococcus aureus; S. aureus MRSA ATCC 46300, 24 h at 35 °C; read-out: MIC
How it was run: (§3)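 Microwell dilution; 24 h, 35 °C; visual read; MIC = lowest conc. without turbidity.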

[11] = test system: S. aureus MSSA ATCC 29213; test: Microdilution MIC assay; conditions: S. aureus MSSA ATCC 29213, 24 h at 35 °C
How it was run: as §3

[12] = test system: P. aeruginosa AGME ATCC 27853; test: Microdilution MIC assay; conditions: Pseudomonas aeruginosa, ATCC27853; P. aeruginosa AGME ATCC 27853, 24 h at 35 °C
How it was run: as §3

[13] = test system: E. coli ATCC 25922; test: Microdilution MIC assay; conditions: Escherichia coli, ATCC25922; E. coli ATCC 25922, 24 h at 35 °C
How it was run: as §3

[14] = test system: E. coli ESBL ATCC 35218; test: Microdilution MIC assay; conditions: Escherichia coli, ATCC35218; E. coli ESBL ATCC 35218, 24 h at 35 °C
How it was run: as §3

[15] = test system: S. mutans ATCC 35668; test: Microdilution MIC assay; conditions: Streptococcus mutans, ATCC35668, 24 h, S. mutans ATCC 35668, 24 h at 35 °C; read-out: MIC
How it was run: as §3

[16] = LDH cytotoxic activity assay, C6; conditions: rat, C6 glioma cells
How it was run: as §1

[17] = LDH cytotoxic activity assay, HeLa; conditions: human, HeLa cells
How it was run: as §1

GI50 ([4]; MTT): > 500 µg/mL | IC50 ([4]; MTT, read-out: IC50): > 500 µg/mL | GI50 ([5]; HT-29, HT29, MTT): 2.75 µg/mL (≈ 4.64 µM) | IC50 ([5]; HT-29, HT29, MTT, read-out: IC50): > 500 µg/mL | GI50 ([6]; MTT): 4.25 µg/mL (≈ 7.17 µM) | IC50 ([6]; MTT, read-out: IC50): > 500 µg/mL | GI50 ([7]; C6, MTT): 2.1 µg/mL (≈ 3.54 µM) | IC50 ([7]; C6, MTT, read-out: IC50): 21.9 µg/mL (≈ 36.9 µM) | GI50 ([8]; A549, MTT): > 500 µg/mL | IC50 ([8]; A549, MTT, read-out: IC50): > 500 µg/mL | GI50 ([9]; MCF7, MTT): 4.46 µg/mL (≈ 7.53 µM) | IC50 ([9]; MCF7, MTT, read-out: IC50): > 500 µg/mL | MIC [10]: 1000 µg/mL (≈ 1690 µM) | MIC [11]: 125 µg/mL (≈ 211 µM) | MIC ([11]; Staphylococcus aureus, 24 h, read-out: MIC): 62.5 to 125 µg/mL (≈ 105 to 211 µM) | MIC [12]: > 1000 µg/mL | MIC [13]: > 1000 µg/mL | MIC [14]: > 1000 µg/mL | MIC [15]: 250 µg/mL (≈ 422 µM)
SMILES: CC(=O)OC[C@H]1O[C@@H](Nc2nc(-c3cccnc3)cc(-c3ccccc3C)n2)[C@H](OC(C)=O)[C@@H](OC(C)=O)[C@@H]1OC(C)=O [Compound 11, 2,3,4,6-tetra-O-acetyl-N-[4-(2-methylphenyl)-6-pyridin-3-ylpyrimidin-2-yl]-β-D-glucopyranosylamine]
cytotoxicity at 24 h, 25 μg/mL ([1]; HT29, 25 μg/mL): 36.1% | cytotoxicity at 24 h, 50 μg/mL ([1]; HT29, 50 μg/mL): 49.3% | cytotoxicity at 24 h, 75 μg/mL ([1]; HT29, 75 μg/mL): 63.8% | cytotoxicity at 24 h, 100 μg/mL ([1]; HT29, 100 μg/mL): 90.6% | LC50 (concentration causing 50% net cell loss) [2]: > 500 µg/mL | GI50 [3]: 11.2 µg/mL (≈ 18.8 µM) | IC50 ([3]; read-out: IC50): > 500 µg/mL | IC (total growth inhibition) ([3]; read-out: TGI): > 500 µg/mL | IC (total growth inhibition) ([4]; MTT, read-out: TGI): > 500 µg/mL | LC50 (concentration causing 50% net cell loss) ([4]; read-out: LC50): > 500 µg/mL | LC50 (concentration giving 50% net cell loss relative to time zero) ([5]; HT-29, read-out: LC50): > 500 µg/mL | IC (total growth inhibition) ([5]; HT-29, HT29, MTT, read-out: TGI): > 500 µg/mL | IC (total growth inhibition) ([6]; MTT, read-out: TGI): > 500 µg/mL | LC50 (concentration causing 50% net cell loss relative to time zero) ([6]; read-out: LC50): > 500 µg/mL | LC50 (concentration giving 50% net cell loss relative to time zero) ([7]; read-out: LC50): 578 µg/mL (≈ 975 µM) | IC (total growth inhibition) ([7]; C6, MTT, read-out: TGI): 8.83 µg/mL | LC50 (concentration causing 50% net cell loss) ([8]; A549, read-out: LC50): > 500 µg/mL | IC (total growth inhibition) ([8]; A549, MTT, read-out: TGI): > 500 µg/mL | LC50 (concentration causing 50% net cell loss relative to time zero) ([9]; MCF7, read-out: LC50): > 500 µg/mL | IC (total growth inhibition) ([9]; MCF7, MTT, read-out: TGI): > 500 µg/mL | cytotoxicity at 24 h, 25 μg/mL ([16]; C6, 25 μg/mL): 26.4% | cytotoxicity at 24 h, 50 μg/mL ([16]; C6, 50 μg/mL): 42.2% | cytotoxicity at 24 h, 75 μg/mL ([16]; C6, 75 μg/mL): 77% | cytotoxicity at 24 h, 100 μg/mL ([16]; C6, 100 μg/mL): 84.8% | cytotoxicity at 24 h, 25 μg/mL ([17]; 25 μg/mL): 17.2% | cytotoxicity at 24 h, 50 μg/mL ([17]; 50 μg/mL): 29.8% | cytotoxicity at 24 h, 75 μg/mL ([17]; 75 μg/mL): 45% | cytotoxicity at 24 h, 100 μg/mL ([17]; 100 μg/mL): 49.8%
